Common to all, as to format: cell-based
The target of test [1] is human calcitonin receptor (CTR) and RAMP3 (AMY3) in COS-7 cells (Homo sapiens, UniProt O60896+P30988). Briefly: Amylin Receptor cAMP Assay I. The note with it: values marked *: Amylin Receptor cAMP Assay I; COS-7/AMY3 cells; read-out: Amylin Receptor cAMP Stimulation Activity: EC50. A digest of the protocol:
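COS-7 cells stably co-expressing human CTR and RAMP3 (AMY3) were stimulated with serially diluted compounds (4-fold) in DPBS with 0.5 mM IBMX and 0.1% BSA for 30 min at 37 °C, 1000 cells/well. cAMP accumulation was measured by HTRF (cAMP-d2/anti-cAMP cryptate, 1 h RT) read at 665/615 nm.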

In test [2] the target is T1, human calcitonin receptor (CTR) in COS-7 cells (Homo sapiens, UniProt P30988).
T1 construct: expressed in transfected cells; host or cells: COS-7 (COS7-human CTR Clone #2)
T1 sequence (P30988 25-474): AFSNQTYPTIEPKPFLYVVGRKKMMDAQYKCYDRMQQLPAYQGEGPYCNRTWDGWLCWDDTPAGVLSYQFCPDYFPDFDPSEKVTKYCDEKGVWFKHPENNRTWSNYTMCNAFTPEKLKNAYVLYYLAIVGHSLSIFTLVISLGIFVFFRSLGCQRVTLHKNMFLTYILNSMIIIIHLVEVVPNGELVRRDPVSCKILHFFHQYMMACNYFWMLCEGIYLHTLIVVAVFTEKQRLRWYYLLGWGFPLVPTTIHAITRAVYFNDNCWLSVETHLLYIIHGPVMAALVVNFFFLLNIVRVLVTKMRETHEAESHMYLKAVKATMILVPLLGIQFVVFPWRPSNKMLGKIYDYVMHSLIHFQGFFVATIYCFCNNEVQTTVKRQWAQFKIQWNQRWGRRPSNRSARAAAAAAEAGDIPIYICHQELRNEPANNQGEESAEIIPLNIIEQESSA
Briefly: Calcitonin Receptor (CTR) cAMP Assay. The conditions noted are these: COS7-human CTR Clone #2 cells; read-out: Calcitonin Receptor cAMP Stimulation Activity: EC50. The source says: Calcitonin Receptor (CTR) cAMP Assay
The calcitonin receptor (CTR) belongs to the subfamily of GPCRs known as the secretin or ‘B’ family of GPCRs. Like other class B1 GPCRs, the CT receptor family is canonically coupled to Gs-mediated cAMP production, and measurement of cAMP accumulation has been the primary assay used to determine peptide selectivity and potency.
(§1) To optimize functional activity directed toward Gas coupling, COS-7 cells were stably transfected with human calcitonin receptor (CTR) to create COS7-human CTR Clone #2 stable cell line. 100× concentration of compound working solutions were prepared with 4-fold serial dilution in 384-well Echo LDV plate (Labcyte, Cat #LP-0200-BC). 200 nL/well 100× concentration of compound working solutions were moved to 384-well white microplate (Perkin Elmer, Cat #6007680) using Labcyte ECHO550. 1×10^5 cells/mL COS7-human CTR Clone #2 cell suspensions prepared with assay buffer [HBSS containing 20 mM HEPES (Gibco, Cat #15630-080), 0.5 mM IBMX (Sigma, Cat #15879) and 0.1% Casein (Sigma, Cat #C4765)], 20 μL cell suspensions were added to each well of previous generated assay plate which already contains 200 nL compound at 100× concentration using ThermoFisher Multidrop Combi (2000 cells/well). Seal the plate and incubate at 37° C. with 5% CO2 for 30 min.
After incubation, the cAMP assay signal was generated using cAMP dynamic 2 kit (Revvity, Cat #62AM4PEC). 10 μL cAMP-d2 working solution was added to each well, followed by […] Anti-cAMP antibody-cryptate working solution which was added to each well using CERTUS FLEX LIQUID DISPENSER. The samples were then incubated at room temperature for 1 hour protected from light. the fluorescence was read at 665 and 615 nm with Reader PerkinElmer EnVision 2105.

For the next test, the target named is Amylin Receptor (Homo sapiens, UniProt O60896+P30988). Briefly: Amylin Receptor cAMP stimulation, assay version (I or II) not marked. The conditions noted are these: values without footnote mark; assay I or II not stated. The procedure: To optimize functional activity directed toward Gas coupling, COS-7 cells were stably transfected with human calcitonin receptor (CTR) and RAMP3, simultaneously. 100× concentration of compound working solutions were prepared (Agilent Technologies Bravo) with 4-fold serial dilution in 384-well Echo LDV plate (Labcyte, Cat #LP-0200). 100 nL/well 100× concentration of compound working solutions were moved to 384-well white low volume plate (Greiner, Cat #784075) using Labcyte ECHO550. 1×10^5 cells/mL COS-7/CTR or COS-7/AMY3 (HD Biosciences) cell suspensions prepared with assay buffer [DPBS containing 0.5 mM IBMX (Sigma, Cat #15879) and 0.1% BSA (GENVIEW, Cat #FA016-100 g)], 10 μL cell suspensions were added to each well of previous generated assay plate which already contains 100 nL compound at 100× concentration using ThermoFisher Multidrop Combi (1000 cells/well). Seal the plate and incubate at 37° C. with 5% CO2 for 30 min.
Sequence of Amylin Receptor (O60896 24-148, one chain of several): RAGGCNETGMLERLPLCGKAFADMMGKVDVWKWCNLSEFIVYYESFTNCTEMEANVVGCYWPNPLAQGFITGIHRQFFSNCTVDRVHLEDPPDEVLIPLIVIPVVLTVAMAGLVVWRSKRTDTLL
After incubation, the cAMP assay signal was generated using cAMP Hi-range Kit (Cisbio). 5 μL cAMP-d2 working solution was added to each well, followed by 5 μL Anti-cAMP antibody-cryptate working solution which was added to each well using ThermoFisher Multidrop Combi. The samples were then incubated at room temperature for 1 hour protected from light. the fluorescence was read at 665 and 615 nm with Reader PerkinElmer EnVision.
as §1, with “and RAMP3, simultaneously.” for “to create COS7-human CTR Clone #2 stable cell line.”, “COS-7/AMY3” for “COS7-human CTR Clone #2”
After incubation, the cAMP assay signal was generated using cAMP dynamic 2 kit (Revvity, Cat #62AM4PEC). 10 μL cAMP-d2 working solution was added to each well, followed by 10 μL Anti-cAMP antibody-cryptate working solution which was added to each well using CERTUS FLEX LIQUID DISPENSER. The samples were then incubated at room temperature for 1 hour protected from light. the fluorescence was read at 665 and 615 nm with Reader PerkinElmer EnVision 2105.

The values below come from US20250042916A1 (ACONCAGUA BIO, INC., priority 2023, published 2025).

Sequence of human calcitonin receptor (CTR) and RAMP3 (AMY3) in COS-7 cells (O60896 24-148, one chain of several): as above

By EC50 is commonly meant the concentration that produces a half-maximal response. For the molecule `Cc1nnc(-c2c(CCc3ccc(F)cc3)nc(CC(C)C)c(C(N)=O)c2-c2ccc(C(=O)N[C@@H]3CCc4ccccc43)s2)o1` [Compound 106, N—[(R)-1-indanyl]-5-{5-carbamoyl-2-[2-(p-fluorophenyl)ethyl]-6-isobutyl-3-(5-methyl-1,3,4-oxadiazol-2-yl)-4-pyridyl}-2-thenamide], the results for the half-maximal effective concentration (EC50) in test [1] and in test [2] were 4.1 nM and 2.1 nM, respectively.

Take `Cc1nnc(-c2c(CCc3ccc(F)cc3)nc(CC(C)C)c(C(N)=O)c2-c2ccc(C(=O)NCc3ccc(F)c(F)c3)s2)o1` [Compound 107, N-(3,4-difluorophenyl)methyl-5-{5-carbamoyl-2-[2-(p-fluorophenyl)ethyl]-6-isobutyl-3-(5-methyl-1,3,4-oxadiazol-2-yl)-4-pyridyl}-2-thenamide]: the concentration for a half-maximal effect (EC50) in test [1] turned out to be 6.6 nM; in test [2], 1.6 nM.

For `COc1cccc2c1CC[C@H]2NC(=O)c1ccc(-c2c(C(N)=O)c(CC(C)C)nc(CCc3ccc(F)cc3)c2-c2nnc(C)o2)s1` [Compound 122, (R)-6-(4-fluorophenethyl)-2-isobutyl-4-(5-((4-methoxy-2,3-dihydro-1H-inden-1-yl)carbamoyl)thiophen-2-yl)-5-(5-methyl-1,3,4-oxadiazol-2-yl)nicotinamide], the EC50 is 0.8 nM in test [1] and 0.73 nM in test [2].

As to `Cc1nnc(-c2c(CCc3ccc(F)cc3)nc(CC(C)C)c(C(N)=O)c2-c2cc3ccnc(NCc4ccc(F)c(F)c4)c3s2)o1` [Compound 131, 4-(7-{[(3,4-difluorophenyl)methyl]amino}-1-thia-6-aza-2-indenyl)-6-[2-(p-fluorophenyl)ethyl]-2-isobutyl-5-(5-methyl-1,3,4-oxadiazol-2-yl)nicotinamide], the concentration giving a half-maximal response (EC50) in test [1] is 4.4 nM; in test [2], 0.33 nM.

As for `COC1CCCN(c2nccc3cc(-c4c(C(N)=O)c(CC(C)C)nc(CCc5ccc(F)cc5)c4-c4nnc(C)o4)sc23)C1` (stereo not drawn) [Compound 135, 6-(4-fluorophenethyl)-2-isobutyl-4-(7-(3-methoxypiperidin-1-yl)thieno[2,3-c]pyridin-2-yl)-5-(5-methyl-1,3,4-oxadiazol-2-yl)nicotinamide], the EC50 in test [1] was over 1000 nM; in test [2], 280 nM.

As for `Cc1nnc(-c2c(CCc3ccc(F)cc3)nc(CC(C)C)c(C(N)=O)c2-c2ccc3c(c2)CCC3OCc2ccc(F)c(F)c2)o1` (stereo not drawn) [Compound 142, 4-{1-[(3,4-difluorophenyl)methoxy]-5-indanyl}-6-[2-(p-fluorophenyl)ethyl]-2-isobutyl-5-(5-methyl-1,3,4-oxadiazol-2-yl)nicotinamide], the EC50 in test [1] is 94 nM; in test [2] it was 8.8 nM.

On to `Cc1nnc(-c2c(CCc3ccc(F)cc3)nc(CC(C)C)c(C(N)=O)c2-c2ccc3c(ccn3CCc3ccc(F)c(F)c3)c2)o1` [Compound 144, 4-(1-(3,4-difluorophenethyl)-1H-indol-5-yl)-6-(4-fluorophenethyl)-2-isobutyl-5-(5-methyl-1,3,4-oxadiazol-2-yl)nicotinamide], for which the EC50 was found to be 51.4 nM in test [1] and 6.9 nM in test [2].

In the case of `Cc1nnc(-c2c(CCc3ccc(F)cc3)nc(CC(C)C)c(C(N)=O)c2-c2ccc3c(c2)CCCN3CCc2ccc(F)c(F)c2)o1` [Compound 174, 4-(1-(3,4-difluorophenethyl)-1,2,3,4-tetrahydroquinolin-6-yl)-6-(4-fluorophenethyl)-2-isobutyl-5-(5-methyl-1,3,4-oxadiazol-2-yl)nicotinamide], the half-maximal effective concentration (EC50) in test [1] stood at 107 nM; in test [2] it was 5.7 nM.

`CCc1nc(CC(C)C)c(C(N)=O)c(-c2cc3ccnc(N[C@@H]4CCc5cc(F)ccc54)c3s2)c1-c1nnc(C)o1` [Compound 188, (R)-6-ethyl-4-(7-((5-fluoro-2,3-dihydro-1H-inden-1-yl)amino)thieno[2,3-c]pyridin-2-yl)-2-isobutyl-5-(5-methyl-1,3,4-oxadiazol-2-yl)nicotinamide]: the EC50 stood at 36.6 nM in test [1] and 8.1 nM in test [2].

Consider `Cc1nnc(-c2c(C34CC(C(F)F)(C3)C4)nc(CC(C)C)c(C(N)=O)c2-c2ccc(C(=O)NCc3ccc(F)c(F)c3)s2)o1` [Compound 190, 4-(5-((3,4-difluorobenzyl)carbamoyl)thiophen-2-yl)-6-(3-(difluoromethyl)bicyclo[1.1.1]pentan-1-yl)-2-isobutyl-5-(5-methyl-1,3,4-oxadiazol-2-yl)nicotinamide], for which the concentration giving a half-maximal response (EC50) in test [1] was 4060 nM; in test [2] it was 738 nM.

`Cc1nnc(-c2c(CC34CC(C(F)F)(C3)C4)nc(CC(C)C)c(C(N)=O)c2-c2ccc(C(=O)NCc3ccc(F)c(F)c3)s2)o1` [Compound 203, 4-(5-((3,4-difluorobenzyl)carbamoyl)thiophen-2-yl)-6-((3-(difluoromethyl)bicyclo[1.1.1]pentan-1-yl)methyl)-2-isobutyl-5-(5-methyl-1,3,4-oxadiazol-2-yl)nicotinamide]: the EC50 stood at 939 nM in test [1] and 65 nM in test [2].

Take `Cc1nnc(-c2c(CCc3ccc(F)cc3)nc(CC(C)C)c(C(N)=O)c2-c2cc3ccnc(NCc4cncc(F)c4)c3s2)o1` [Compound 206, 6-[2-(p-fluorophenyl)ethyl]-4-(7-{[(5-fluoro-3-pyridyl)methyl]amino}-1-thia-6-aza-2-indenyl)-2-isobutyl-5-(5-methyl-1,3,4-oxadiazol-2-yl)nicotinamide]: the midpoint of the response on Amylin Receptor, the EC50, lay at 41.5 nM.

With `Cc1cnc(-c2c(CCC3CCOCC3)nc(CC(C)C)c(C(N)=O)c2-c2cc3ccnc(N[C@@H]4CCc5ncccc54)c3s2)o1` [Compound 207, 4-{7-[(R)-4-aza-1-indanylamino]-1-thia-6-aza-2-indenyl}-2-isobutyl-5-(5-methyl-1,3-oxazol-2-yl)-6-[2-(tetrahydro-2H-pyran-4-yl)ethyl]nicotinamide], the EC50 on Amylin Receptor came out at 64.3 nM.
